Reference: patent US20120073988A1, “Sensor for Measurement of Hydrogen Sulfide” (priority 2004, published 2012)

What was measured:
[1] = H2S→H++HS−; HS−→S2−+H+; cited from earlier work
[2] = test system: mitochondria isolated from marine mussel gills; assay: O2 consumption of a mitochondria suspension isolated from mussel gills in a closed chamber; design: species or system ribbed mussel Geukensia demissa; conditions: injections of 12.5 μM sulfide, FIG. 5A
Source text: The cellular organelle responsible for O2 consumption in biological cells is the mitochondrion. […] Such rapid kinetic events could not be adequately followed with standard colorimetric methods for H2S determination.
Mitochondria were isolated using the isolation procedure referenced in Parrino, V., D. W. Kraus and J. E. Doeller; ATP production from the oxidation of sulfide in gill mitochondria of the ribbed mussel Geukensia demissa; J. Exp. Biol.; (2000) 203:2209-2218, the contents of which are incorporated by reference herein. The mitochondria were suspended in an aqueous salt- and sucrose-containing buffer described in the Parrino reference.
In FIG. 5A two traces show the real-time concentrations of H2S and O2 in a closed chamber containing a mitochondria suspension isolated from mussel gills. The lower trace is H2S concentration and the upper trace is O2 concentration from a different sensor. […] As the chamber O2 is exhausted the sulfide is consumed much more slowly. In FIG. 5B the derivatives (H2S as lower trace and O2 as upper trace) of the traces in FIG. 5A are shown.

isolated rat aorta = assay: Vessel tension organ bath with isolated rat aorta segments; conditions: aorta pre-contracted with 100 nM phenylephrine; FIG. 7
Protocol: Individual segments, 4 mm long and 1.5 mm in diameter, are tethered between the bath floor and a sensitive force transducer above the bath in order to measure any vasorelaxation as a decrease in tension. An electrochemical H2S sensor (PHSS) is also immersed in the bath to simultaneously report the H2S concentration. The aorta vessels are first contracted by adding 100 nM phenylephrine, PE, to the bath to stimulate physiological vessel tension. […] Measurement of such an acute response of blood vessels to H2S concentration is only possible with the hydrogen sulfide detection apparatus comprising the PHSS.

[3] = test system: enzyme in the blood vessels that is responsible for H2S production (rat aorta homogenate, VSMC, intact tail artery); assay: Real-time H2S production in rat vascular samples supplied with L-cysteine and PLP; assay type: biochemical; conditions: added after L-cysteine and PLP; FIG. 6
Source text: In general, the following biological samples are bathed in the potassium phosphate buffer (PBS) described above. The specific procedures are found in Doeller, J. E., Isbell, T. S., Benavides, G., Koenitzer, J., Patel, H., Patel, P. P., Lancaster, J. R. Jr., Darley-Usmar, V. M., and Kraus, D. W.; Polarographic measurement of hydrogen sulfide production and consumption by mammalian tissues; Anal. Biochem.; (2005) 341: 40-51, the contents of which are incorporated by reference herein.
FIG. 6 illustrates measurement of real-time H2S production in rat aorta homogenate (Aorta homogenate), cultured rat vascular smooth muscle cells (VSMC) and living rat tail artery (Intact Tail Artery). After supplying each of the samples with the amino acid L-cysteine and the vitamin pyridoxal […] (PLP), both substrate and cofactor respectively, for the enzyme in the blood vessels that is responsible for H2S production, a rise in solution H2S concentration is observed.

SMILES: S [H2S, Hydrogen sulfide]
- pKa [1]: 6.88

SMILES: S [HS^−]
- pKa [1]: 14.15

SMILES: [Na+].[Na+].[S-2] [Na2S]
- effect on O2 consumption [2]: stimulate O2 consumption
- vessel tension (vasorelaxation) (isolated rat aorta): immediate vasorelaxation event

SMILES: N#CC[C@H](N)C(=O)O [BCA, beta-cyanoalanine]
- effect on H2S production [3]: limit any further H2S production
